The source made the active and inactive calls. The calls are words filed in the database; no cut-off is given here.
Tests used:
[1] = test system: MDA-MB-231; test: Cytotoxicity against human MDA-MB-231 cells after 72 hrs by resazurin based fluorescence assay; assay type: functional, cell-based
[2] = test system: A549; test: Cytotoxicity against human A549 cells after 72 hrs by resazurin based fluorescence assay; assay type: functional, cell-based
[3] = test system: HeLa; test: Cytotoxicity against human HeLa cells after 72 hrs by resazurin based fluorescence assay; assay type: functional, cell-based
[4] = biological target: T1, Tubulin (Bos taurus) (UniProt Q6B856+Q862L2+Q862F3); test: Inhibition of bovine brain tubulin polymerization at 1 uM after 60 mins by spectrophotometric analysis
[5] = biological target: T1, Tubulin (Bos taurus); test: Inhibition of bovine brain tubulin polymerization at 10 uM after 60 mins by spectrophotometric analysis
[6] = test system: Chorioallantoic membrane; test: Antiangiogenic activity in chicken embryo chorioallantoic membrane model assessed as inhibition of bFGF/VEGF-induced new vessel growth; assay type: functional, tissue-based; conditions: Gallus gallus
[7] = biological target: Tubulin (Homo sapiens) (UniProt P68371+Q9H4B7+P0DPH7+P68366+Q13509+Q71U36+P04350+Q3ZCM7+P07437+P68363+Q9BQE3+Q6PEY2+Q13885+Q9BVA1+Q9BUF5); test: Displacement of colchicine from tubulin (unknown origin) at 0.1 to 125 uM after 1 hr by HPLC-MS/MS analysis; assay type: protein-complex assay
[8] = Plasma concentration in C57BL/6 mouse at 5 mg/kg, po after 1 hr; assay type: ADME, organism-based; set-up: dose 5 mg/kg, route oral

Row | Structure (SMILES) | IC50 ([1]; Homo sapiens, MDA-MB-231, 72 h) [µM] | IC50 ([2]; Homo sapiens, A549, 72 h) [µM] | IC50 ([3]; Homo sapiens, HeLa, 72 h) [µM] | also measured
1 | COc1ccc(-c2cccc(-c3ccc(OC)c(O)c3)n2)c(OC)c1 [listing 1 of 3 here] |  |  |  | IC50 ([1]; mda-mb-231): 0.0054 µM; IC50 ([2]; a549): 0.042 µM; IC50 ([3]; hela): 0.0026 µM
2 | COc1cc(-c2cccc(-c3cc(OC)c(OC)c(OC)c3)n2)cc(OC)c1OC | 11 | > 50 | 1 | 
3 | COc1ccc(-c2cccc(-c3ccc(O)cc3)n2)cc1 | > 25 | > 25 | > 50 | 
4 | COc1ccc(-c2cccc(-c3ccc(OC)c(OC)c3)n2)cc1OC | > 50 | > 50 | > 25 | 
5 | COc1cc(-c2cccc(-c3ccc(O)cc3)n2)cc(OC)c1OC | 10 | > 25 | 8 | 
6 | COc1ccc(-c2cccc(-c3ccc(OC)cc3OC)n2)c(OC)c1 | 0.075 | 0.079 | 0.011 | 
7 | COc1ccc(-c2cccc(-c3ccc(O)cc3)n2)c(OC)c1 | 17.2 | 4.22 | > 100 | 
8 | COc1cc(OC)cc(-c2cccc(-c3ccc(OC)cc3OC)n2)c1 | > 25 | > 25 | > 50 | 
9 | COc1cc(-c2ccnc(-c3cc(OC)c(OC)c(OC)c3)c2)cc(OC)c1OC | 2.63 | 7.86 | 0.79 | 
10 | COc1ccc(-c2cccc(-c3ccc(O)cc3)n2)cc1OC | > 50 | > 100 | 0.86 | 
11 | COc1ccc(-c2cccc(-c3ccc(OC)c(O)c3)n2)c(OC)c1 [listing 2 of 3 here] |  |  |  | inhibition [4]: inactive; inhibition [5]: 57%; growth inhibition (GI) [6]: Active; inhibition [7]: Active
12 | COc1cc(-c2ccc(Br)cn2)cc(OC)c1OC | 12.1 | > 25 | 14 | 
13 | COc1ccc(-c2cccc(-c3ccc(OC)c(O)c3)n2)c(OC)c1 [listing 3 of 3 here] | 0.0046 | 0.044 | 0.0014 | concentration at 1 h [8]: 9.2 ng/mL
14 | COc1ccc(-c2cccc(-c3c(OC)cc(OC)cc3OC)n2)c(OC)c1 | > 50 | > 50 | > 25 | 
15 | COc1ccc(-c2cccc(-c3ccccc3OC)n2)c(OC)c1 | > 25 | > 50 | > 25 | 
16 | COc1ccc(-c2ccc(-c3ccc(OC)cc3OC)nc2)c(OC)c1 | > 100 | > 100 | > 50 | 
